Square brackets hold non-standard residues; d marks the D form. Peptide text beside a SMILES is read from it. Thz(5,5-Me2) = CC1(C)SCN[C@@H]1C(=O)O; dThz(5,5-Me2) = CC1(C)SCN[C@H]1C(=O)O; Gly(cPent) = N[C@H](C(=O)O)C1CCCC1; hPhe = N[C@@H](CCc1ccccc1)C(=O)O; Chg = N[C@H](C(=O)O)C1CCCCC1; Pen = CC(C)(S)[C@H](N)C(=O)O; Nle = CCCC[C@H](N)C(=O)O; Sar = CNCC(=O)O
Key:
[1] = organism: Oryctolagus cuniculus; test: In vitro antagonist activity of compound towards angiotensin II like was measured in rabbit aorta assay; type: functional
[2] = target: T1, Type-2 angiotensin II receptor (Rattus norvegicus) (UniProt P35351); test: (§1) In vivo angiotensin II like activity expressed in rat blood pressure assay measured as increase in BP by 1 ug bolus intravenous injection of compound; type: functional, organism-based
T1 sequence (whole entry): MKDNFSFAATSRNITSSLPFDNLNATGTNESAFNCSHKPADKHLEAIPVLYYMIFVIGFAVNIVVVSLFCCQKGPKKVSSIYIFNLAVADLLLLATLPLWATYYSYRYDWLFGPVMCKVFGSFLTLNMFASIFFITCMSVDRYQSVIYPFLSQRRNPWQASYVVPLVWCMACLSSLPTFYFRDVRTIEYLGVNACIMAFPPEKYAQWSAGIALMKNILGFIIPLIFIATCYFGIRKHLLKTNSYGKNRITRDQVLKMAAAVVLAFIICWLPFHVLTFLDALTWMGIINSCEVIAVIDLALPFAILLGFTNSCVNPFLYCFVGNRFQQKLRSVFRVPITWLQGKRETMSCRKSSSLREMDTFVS

[3] = test system: Rattus norvegicus; test: In vivo inhibitory activity against Residual angiotensin II in the rat blood pressure; type: functional
[4] = test system: Rattus norvegicus; test: as §1; type: functional
[5] = test system: Rattus norvegicus; test: In vivo antagonistic activity was measured in the rat blood pressure assay; type: functional
[6] = target: Type-1 angiotensin II receptor (Oryctolagus cuniculus) (UniProt P34976); test: In vitro antagonist activity of compound towards angiotensin II like was measured in rabbit aorta assay; settings: target entry is the homologue from another species
[7] = test system: Rattus norvegicus; test: In vivo angiotensin II like activity determined in rat blood pressure assay measured as increase in BP by 1 ug iv of compound; type: functional
[8] = organism: Oryctolagus cuniculus; test: In vitro antagonist activity was measured in rabbit aorta assay as pA2
[9] = test system: Rattus norvegicus; test: In vivo residual angiotensin II like activity in rat blood pressure assay; type: functional
[10] = test system: Rattus norvegicus; test: In vivo residual angiotensin II like activity in an rat blood pressure assay; type: functional; design: concentration or dose not given beside the values
[11] = organism: Oryctolagus cuniculus; test: pA2 value was evaluated in rabbit aorta assay; type: functional
[12] = target: Type-1 angiotensin II receptor (Oryctolagus cuniculus) (UniProt P34976); test: In vitro antagonist activity of compound towards angiotensin II like was measured in a rabbit aorta assay; settings: target entry is the homologue from another species

Chain of Type-1 angiotensin II receptor (Oryctolagus cuniculus) (P34976 whole entry, looked up): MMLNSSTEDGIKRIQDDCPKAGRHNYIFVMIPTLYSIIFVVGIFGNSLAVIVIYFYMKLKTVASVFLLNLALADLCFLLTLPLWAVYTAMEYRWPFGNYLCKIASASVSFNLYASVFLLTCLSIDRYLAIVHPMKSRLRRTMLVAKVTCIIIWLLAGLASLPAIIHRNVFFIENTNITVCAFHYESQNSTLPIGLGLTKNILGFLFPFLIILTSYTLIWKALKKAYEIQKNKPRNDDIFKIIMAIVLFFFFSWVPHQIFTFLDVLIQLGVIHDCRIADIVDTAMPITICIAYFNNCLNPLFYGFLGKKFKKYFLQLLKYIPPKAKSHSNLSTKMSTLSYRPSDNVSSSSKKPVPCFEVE

Row | Compound | ID50 [5] [ng min-1 rat-1] | BP [7] [mmHg] | Activity [10] [%] | further results
1 | CC[C@H](C)[C@H](NC(=O)[C@@H]1CCCN1C(=O)[C@H](Cc1c[nH]cn1)NC(=O)[C@@H](NC(=O)[C@H](Cc1ccc(O)cc1)NC(=O)[C@@H](NC(=O)[C@H](CCCN=C(N)N)NC(=O)CNC)C(C)C)[C@@H](C)CC)C(=O)O | – | – | – | pA2 [1]: 9.1; BP [2]: 10.2 mmHg; ID50 [3]: 10 ng min-1 rat-1
2 | CC[C@H](C)[C@H](NC(=O)[C@@H]1CCCN1C(=O)[C@H](Cc1c[nH]cn1)NC(=O)[C@H]1N(C(=O)[C@H](Cc2ccc(O)cc2)NC(=O)[C@@H](NC(=O)[C@H](CCCN=C(N)N)NC(=O)CNC)C(C)C)CSC1(C)C)C(=O)O (H-[Sar]RVY[Thz(5,5-Me2)]HPI-OH) | 25 | – | – | BP [4]: 11.4 mmHg; pA2 [6]: 9
3 | CC[C@H](C)[C@H](NC(=O)[C@@H]1CCCN1C(=O)[C@H](Cc1c[nH]cn1)NC(=O)[C@H](Cc1ccc(O)cc1)NC(=O)[C@H](Cc1ccc(O)cc1)NC(=O)[C@@H](NC(=O)[C@H](CCCN=C(N)N)NC(=O)CNC)C(C)C)C(=O)O | 50 | 2.5 | – | pA2 [8]: 9.6
4 | CNCC(=O)N[C@@H](CCCN=C(N)N)C(=O)N[C@H](C(=O)N[C@@H](Cc1ccc(O)cc1)C(=O)N1CSC(C)(C)[C@@H]1C(=O)N[C@@H](Cc1c[nH]cn1)C(=O)N1CCC[C@H]1C(=O)N[C@@H](Cc1ccccc1)C(=O)O)C(C)C (H-[Sar]RVY[dThz(5,5-Me2)]HPF-OH) | – | 100 | – | –
5 | H-NRVYPHPF-OH | – | – | – | Activity [9]: 10%
6 | H-NRVYYHPF-OH | – | – | 0 | –
7 | CNCC(=O)N[C@@H](CCCN=C(N)N)C(=O)N[C@H](C(=O)N[C@@H](Cc1ccc(O)cc1)C(=O)N[C@H](C(=O)N[C@@H](Cc1c[nH]cn1)C(=O)N1CCC[C@H]1C(=O)N[C@@H](Cc1ccccc1)C(=O)O)C(C)(C)SC)C(C)C (H-[Sar]RVY[Pen](Me)HPF-OH) | – | 60 | – | –
8 | CO[C@H](C)[C@H](NC(=O)[C@H](Cc1ccc(O)cc1)NC(=O)[C@@H](NC(=O)[C@H](CCCN=C(N)N)NC(=O)[C@@H](N)CC(N)=O)C(C)C)C(=O)N[C@@H](Cc1c[nH]cn1)C(=O)N1CCC[C@H]1C(=O)N[C@@H](Cc1ccccc1)C(=O)O (H-NRVYT(Me)HPF-OH) | – | – | 118 | –
9 | CC(C)[C@H](NC(=O)[C@H](CCCN=C(N)N)NC(=O)[C@@H](N)CC(N)=O)C(=O)N[C@@H](Cc1ccc(O)cc1)C(=O)N[C@H](C(=O)N[C@@H](Cc1c[nH]cn1)C(=O)N1CCC[C@H]1C(=O)N[C@@H](Cc1ccccc1)C(=O)O)C1CCCCC1 (H-NRVY[Chg]HPF-OH) | – | – | 114 | –
10 | CCCC[C@H](NC(=O)[C@H](Cc1ccc(O)cc1)NC(=O)[C@@H](NC(=O)[C@H](CCCN=C(N)N)NC(=O)[C@@H](N)CC(N)=O)C(C)C)C(=O)N[C@@H](Cc1c[nH]cn1)C(=O)N1CCC[C@H]1C(=O)N[C@@H](Cc1ccccc1)C(=O)O (H-NRVY[Nle]HPF-OH) | – | – | 21 | –
11 | CC[C@H](C)[C@H](NC(=O)[C@@H]1CCCN1C(=O)[C@H](Cc1c[nH]cn1)NC(=O)[C@@H](NC(=O)[C@H](Cc1ccc(O)cc1)NC(=O)[C@@H](NC(=O)[C@H](CCCN=C(N)N)NC(=O)CNC)C(C)C)[C@@H](C)OC)C(=O)O (H-[Sar]RVYT(Me)HPI-OH) | – | – | – | pA2 [11]: 9.7; BP [4]: 7.5 mmHg
12 | CC[C@H](C)[C@H](NC(=O)[C@@H]1CCCN1C(=O)[C@H](Cc1c[nH]cn1)NC(=O)[C@H](Cc1c[nH]cn1)NC(=O)[C@H](Cc1ccc(O)cc1)NC(=O)[C@@H](NC(=O)[C@H](CCCN=C(N)N)NC(=O)CNC)C(C)C)C(=O)O | 5 | 10 | – | pA2 [8]: 9
13 | CC[C@H](C)[C@H](NC(=O)[C@@H]1CCCN1C(=O)[C@H](Cc1c[nH]cn1)NC(=O)[C@H](C)NC(=O)[C@H](Cc1ccc(O)cc1)NC(=O)[C@@H](NC(=O)[C@H](CCCN=C(N)N)NC(=O)CNC)C(C)C)C(=O)O (H-[Sar]RVYAHPI-OH) | 50 | – | – | BP [4]: 5 mmHg; pA2 [12]: 7.5
14 | CC[C@H](C)[C@H](NC(=O)[C@@H]1CCCN1C(=O)[C@H](Cc1c[nH]cn1)NC(=O)[C@H](CCc1ccccc1)NC(=O)[C@H](Cc1ccc(O)cc1)NC(=O)[C@@H](NC(=O)[C@H](CCCN=C(N)N)NC(=O)CNC)C(C)C)C(=O)O (H-[Sar]RVY[hPhe]HPI-OH) | 20 | 10 | – | pA2 [8]: 7.75
15 | CC(C)[C@H](NC(=O)[C@H](CCCN=C(N)N)NC(=O)[C@@H](N)CC(N)=O)C(=O)N[C@@H](Cc1ccc(O)cc1)C(=O)N[C@H](C(=O)N[C@@H](Cc1c[nH]cn1)C(=O)N1CCC[C@H]1C(=O)N[C@@H](Cc1ccccc1)C(=O)O)C1CCCC1 (H-NRVY[Gly(cPent)]HPF-OH) | – | – | 89 | –
